Entries after “also recorded” stand apart in the source; their conditions may differ. Where two headings read alike, the source gives them in different places.
Tests used:
[1] = Cell viability assay (MTS) in DENV replicon cells; details: hamster
[2] = system: DENV replicon cells (BHK); experiment: Cell viability assay (MTS) in DENV replicon cells; details: for CC50: DENV replicon BHK cells, MTS, 72 h
DENV-2 viral replicon [3] = experiment: microbe, parasite or virus in culture; details: Dengue virus, DENV2, BHK, 72 h
IAV = experiment: Protection of Huh7 cells from IAV-induced cytopathic effects (MTS); type: cell-based, influenza A virus
DENV replicon = type: cell-based, Dengue virus (DENV); details: for antiviral activity of nucleobase alone: 0.6 μM nucleobase, without 6-MMPR; for antiviral (anti-replicon) activity when supplemented with 6-MMPR: nucleobase supplemented with 0.01 μM 6-MMPR
ZIKV = experiment: Potentiation in replication-competent ZIKV titer reduction assay using Huh-7 cells; details: 0.1 μM 6-MMPR, infectious virus titer
Procedure: DENV and ZIKV. Huh7 cells were plated in each well of a 24 well plate (1×10^5/well). Twenty-four hours later, cells were inoculated with DENV 2 or ZIKV at a multiplicity of infection (MOI) of 0.05. Two hours post-inoculation, inoculum was retired and fresh medium containing treatment was added. Columns 1 to 6 were treated with increasing concentrations of 6-MMPR (0, 0.025, 0.05, 0.1, 0.2 and 0.4 μM). Rows A to D were treated with 0, 25, 50 and 100 μM of T-1105. Supernatants were collected after 72 hours post-infection and infectious virions were analyzed by plaque assay as extent of infectious virus production.

HCoV-OC43 = experiment: Potentiation against HCoV-OC43 in Huh7 cells; type: cell-based, human betacoronavirus OC43; details: HCoV-OC43, combination with 6-MMPR, MacSynergy; listed as favipiravir
Procedure: HCoV-OC43. Huh7 cells were 12,500 Huh7 cells were seeded in a 96 well plate. Next day, the cells were inoculated with OC43 virus at a MOI (multiplicity of infection) of 0.5 for two hours. Next, the inoculum was removed and cells were treated with different combinations of 6MMPr and T-705 or remdesivir 1 μM (RDV) as positive control. Three wells per treatment were used. Cells were incubated for 5 days. Infected and treated cells were analyzed for cell viability by MTS and absorbance was measured at 490 nm.

DENV 2 = experiment: Potentiation in replication-competent DENV assay using Huh-7 cells (plaque assay, MacSynergy II); details: for synergy/potentiation with 6-MMPR for reduction in DENV replication: Huh7 cells, 0.1 μM 6-MMPR, infectious virus titer (FIG. 9); for potentiation/synergy with 6-MMPR of anti-DENV activity: Huh-7 cells, matrix of 6-MMPR and T-1105, infectious virus titer (FIG. 6)
Procedure: Huh7 cells were plated in each well of a 24 well plate (1×10^5/well). Twenty-four hours later, cells were inoculated with DENV 2 or ZIKV at a multiplicity of infection (MOI) of 0.05. Two hours post-inoculation, inoculum was retired and fresh medium containing treatment was added. Columns 1 to 6 were treated with increasing concentrations of 6-MMPR (0, 0.025, 0.05, 0.1, 0.2 and 0.4 μM). Rows A to D were treated with 0, 25, 50 and 100 μM of T-1105. Supernatants were collected after 72 hours post-infection and infectious virions were analyzed by plaque assay as extent of infectious virus production. For FIG. 5, Huh7 cells were inoculated with DENV or ZIKV and treated with different concentrations of T-1105 (0, 3, 9, 27, 51 or 243 μM), T-1106 (0, 6.7, 20, 60, 180 or 540 μM) and T-705 (same concentrations as T-1106) in combination with 0.1 μM AM28 or DMSO. After 72 hours post infection supernatants were collected and analyzed for viral yield by plaque assay.

[4] = Safety of the combination in DENV mouse model; type: in vivo; details: health of the mice / body weight
Procedure: The mice were treated with Vehicle, the combination T-1105 (3a)+6-MMPR, 1105 only, and PBS. Viral genomes were detected and quantitated by RT-qPCR at 2 or 4 days post infection. […] These studies help predict a safe dose and timing of administration of the combination of favipiravir (T705) and 6-MMPR to treat RNA virus infections, such as SARS-CoV-2.

DENV = DENV titer reduction assay in Huh-7 cells, dose-response; type: cell-based; details: Dengue virus
DENV-2 viral replicon [5] = details: for TTI, tissue culture therapeutic index (CC50/EC50): DENV replicon BHK cells
[6] = combination with 6-MMPR (AM28), MacSynergy II

NC(=O)c1nc(F)cnc1O [Compound 5a, 6-fluoro-3-hydroxypyrazine-2-carboxamide, reference compound] showed a CC50 at 72 h [1] greater than 665 µM, a CC50 [2] greater than 1000 µM and an EC50 (DENV-2 viral replicon [3]) of 110 ± 30 µM. For the same compound, the “synergy with 6-MMPR against IAV” value (IAV) was “synergistic antiviral effect; also recorded: clear synergy peak”, the “protection of cells from IAV-induced cytopathic effects (CPE)” value (IAV; Huh7 cells, in combination with 6MMPR, listed as favipiravir) was “can protect cells; also recorded: protection of human cells from IAV-induced cell death” and the “synergy with 6-MMPR for reduction in DENV replicon replication” value (from here on “synergy with 6-MMPR for reduction”) (DENV replicon) was “synergistic effect”. The “synergy/potentiation with 6-MMPR for reduction in ZIKV replication” value (ZIKV) was “showed synergy”, the “synergy/potentiation with 6-MMPR for reduction in ZIKV replication” value (ZIKV; listed as T-705) was “synergistic effect” and the “synergy/potentiation with 6-MMPR for reduction in ZIKV replication” value (ZIKV; listed as favipiravir) was “synergistic antiviral effect”. For the same compound, the “synergy with 6-MMPR in inhibiting production of infectious coronavirus particles” value (HCoV-OC43) was “synergistic antiviral effect; also recorded: synergistically increases; also recorded: clear synergistic effect”, the “synergy/potentiation with 6-MMPR for reduction in DENV replication” value (DENV 2; listed as T-705) was “synergistic effect” and the “synergy/potentiation with 6-MMPR for reduction in DENV replication” value (DENV 2; listed as favipiravir) was “synergistic antiviral effect”. For the same compound, the “safety of the combination with 6-MMPR” value [4] was “safe”.

With CSc1ncnc2c1ncn2[C@@H]1O[C@H](CO)[C@@H](O)[C@H]1O [Compound 6-MMPR, (2R,3S,4R,5R)-2-(hydroxymethyl)-5-(6-(methylthio)-9H-purin-9-yl)tetrahydrofuran-3,4-diol] the “antiviral activity of 6-MMPR alone” value (DENV replicon; 0.01 μM, alone) was “lack of antiviral activity”, the “potentiation of nucleobase anti-replicon activity” value (DENV replicon; 6-MMPR 0.0025 and 0.005 μM) was “did not potentiate nucleobase anti-replicon activity” and the “anti-replicon activity of their own” value (DENV replicon; 6-MMPR 0.0025 and 0.005 μM, alone) was “nor did they have anti-replicon activity of their own”.

In the case of NC(=O)c1nccn([C@@H]2O[C@H](CO)[C@@H](O)[C@H]2O)c1=O [Compound 3b, 4-((2R,3R,4S,5R)-3,4-dihydroxy-5-(hydroxymethyl)tetrahydrofurran-2-yl)-3-oxo-3,4-dihydropyrazine-2-carboxamide], the CC50 [2] is reported as greater than 1000 µM, the EC50 (DENV-2 viral replicon [3]) is reported as 113 ± 11 µM and the “synergy with 6-MMPR for reduction” value (DENV replicon; [6]) is reported as “did not result in significant synergy”. The “synergy with 6-MMPR for reduction” value (DENV replicon; combination with 6-MMPR (AM28), MacSynergy II, listed as T-1106) was “synergistic effect”, the “synergy/potentiation with 6-MMPR for reduction in ZIKV replication” value (ZIKV) was “did not potentiate” and the “synergy/potentiation with 6-MMPR for reduction in ZIKV replication” value (ZIKV; listed as T-1106) was “does not produce a synergistic effect”. For the same compound, the EC50 (DENV) was 60 ± 22 µM, the “synergy/potentiation with 6-MMPR for reduction in DENV replication” value (DENV 2) was “almost entirely an additive result” and the “synergy/potentiation with 6-MMPR for reduction in DENV replication” value (DENV 2; listed as T-1106) was “does not produce a synergistic effect”. The “TTI, tissue culture therapeutic index (CC50/EC50)” value (DENV-2 viral replicon [5]) was 8.8.

Work on NC(=O)c1nccnc1O [Compound 3a, 3-hydroxypyrazine-2-carboxamide] yielded a CC50 at 72 h [1] greater than 665 µM, a CC50 [2] greater than 665 µM and an EC50 (DENV-2 viral replicon [3]) of 21 ± 0.7 µM. For the same compound, the cellular toxicity (Huh-7 cells) was “absence of cellular toxicity”, the “synergy with 6-MMPR for reduction” value (DENV replicon; [6]) was “Stronger synergy” and the “synergy with 6-MMPR for reduction” value (DENV replicon; combination with 6-MMPR (AM28), MacSynergy II, listed as T-1105) was “synergistic effect”. For the same compound, the “synergy/potentiation with 6-MMPR for reduction in ZIKV replication” value (ZIKV) was “showed synergy”, the “synergy/potentiation with 6-MMPR for reduction in ZIKV replication” value (ZIKV; listed as T-1105) was “synergistic effect” and the EC50 (DENV) was 20 ± 11 µM. For the same compound, the “synergy/potentiation with 6-MMPR for reduction in DENV replication” value (DENV 2) was “synergistic effect”, the “potentiation/synergy with 6-MMPR of anti-DENV activity” value (DENV 2) was “strongly potentiates” and the “potentiation/synergy with 6-MMPR of anti-DENV activity” value (DENV 2; listed as T-1105) was “synergistic effect”. The “times more active than nucleobase 5a (favipiravir)” value (DENV-2 viral replicon [5]; DENV replicon) was 5 and the “TTI, tissue culture therapeutic index (CC50/EC50)” value (DENV-2 viral replicon [5]) was 32.

Compound NC(=O)c1ncn([C@@H]2O[C@H](CO)[C@@H](O)[C@H]2O)n1 [Compound 1b, 1-((2R,3R,4S,5R)-3,4-dihydroxy-5-(hydroxymethyl)tetrahydrofuran-2-yl)-1H-1,2,4-triazole-3-carboxamide, reference compound] has an EC50 (DENV-2 viral replicon [3]) of 1.3 ± 0.1 µM.

For NC(=O)c1ncn([C@@H]2O[C@H](CO)[C@@H](O)[C@H]2O)c1O [Compound 2b, 1-((2R,3R,4S,5R)-3,4-dihydroxy-5-(hydroxymethyl)tetrahydrofuran-2-yl)-5-hydroxy-1H-imidazole-4-carboxamide, reference compound], the CC50 [2] was 33 ± 12 µM, the EC50 (DENV-2 viral replicon [3]) was 15 ± 7.8 µM and the “TTI, tissue culture therapeutic index (CC50/EC50)” value (DENV-2 viral replicon [5]) was 2.2.

With COc1c(C)c2c(c(O)c1C/C=C(C)/C=C(\C)C(=O)O)C(=O)OC2 [Compound 6, (2E,4E)-6-(4-hydroxy-6-methoxy-7-methyl-3-oxo-1,3-dihydroisobenzofuran-5-yl)-2,4-dimethylhexa-2,4-dienoic acid, reference compound] the CC50 [2] was 1.4 ± 0.4 µM, the EC50 (DENV-2 viral replicon [3]) was 0.3 ± 0.03 µM and the “TTI, tissue culture therapeutic index (CC50/EC50)” value (DENV-2 viral replicon [5]) was 4.7.

In the case of NC(=O)c1nc[nH]c1O [Compound 2a, 5-hydroxy-1H-imidazole-4-carboxamide], the CC50 [2] is reported as 23 ± 4.2 µM, the EC50 (DENV-2 viral replicon [3]) is reported as 2.4 ± 0.1 µM and the “antiviral activity of nucleobase alone” value (DENV replicon) is reported as “no antiviral activity”. The “antiviral (anti-replicon) activity when supplemented with 6-MMPR” value (DENV replicon) was “an increase in antiviral activity was observed” and the “TTI, tissue culture therapeutic index (CC50/EC50)” value (DENV-2 viral replicon [5]) was 9.6.

For NC(=O)c1nc[nH]n1 [Compound 1a, 1H-1,2,4-triazole-3-carboxamide], the CC50 at 72 h [1] was greater than 665 µM, the CC50 [2] was greater than 1000 µM and the cytotoxicity ([2]; at 1000 μM) was “did not show cytotoxicity”. The EC50 (DENV-2 viral replicon [3]) was 4.9 ± 1.6 µM, the “antiviral activity of nucleobase alone” value (DENV replicon) was “no antiviral activity” and the “antiviral (anti-replicon) activity when supplemented with 6-MMPR” value (DENV replicon) was “an increase in antiviral activity was observed”. The “TTI, tissue culture therapeutic index (CC50/EC50)” value (DENV-2 viral replicon [5]) was 204.

Compound Nc1nc(N)c2[nH]cnc2n1 [Compound 4a, 9H-purine-2,6-diamine] has a CC50 [2] of 13 ± 2.1 µM.

From US20220273689A1, “POTENTIATION OF ANTIVIRAL NUCLEOBASES AS RNA VIRUS THERAPY” (REGENTS OF THE UNIVERSITY OF MINNESOTA, priority 2019, published 2022)
